The supplement of paper PMC10627819

Experiments:
[1] = tested on: S. aureus Newman; assay: Bliss interaction score (quartile over a dose matrix) (fitness difference); higher = more antagonism (negative = synergy)
Procedure, shortened: (§1)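 Growth was read as OD595 when cultures entered stationary phase, and each value was divided by the plate's robust no-drug mean and capped at 1. This normalised ratio is the fitness value, and fitness for each single drug came from the combination data. The Bliss score subtracts the expected fitness, taken as the product, from the observed fitness and is given as quartiles across technical, biological and donor/recipient replicates.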

[2] = tested on: S. pneumoniae D39V; assay: as above
Procedure, shortened: as §1

[3] = tested on: S. aureus DSM 20231; assay: as above
Procedure, shortened: as §1

[4] = tested on: B. subtilis 168; assay: as above
Procedure, shortened: as §1

[5] = tested on: S. aureus Newman; assay: fitness (endpoint OD595 vs no drug) (fraction); higher = more growth; settings: main component drawn
Procedure, shortened: (§2)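 Growth medium was TSB, LB Lennox or CY, and plates were kept at 37 °C. Inoculation was at OD595 0.01 in 384-well plates, at 30 µl per well or 55 µl for S. pneumoniae. OD595 was monitored every 30 min for 14 h and background-subtracted using the first reading. Fitness is the optical density on entering stationary phase divided by the robust mean of no-drug controls, with values capped at 1.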

[6] = tested on: S. aureus DSM 20231; assay: as above
Procedure, shortened: as §2

[7] = tested on: S. pneumoniae D39V; assay: as above
Procedure, shortened: as §2

[8] = tested on: B. subtilis 168; assay: as above
Procedure, shortened: as §2
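Wherever Bliss interaction score (quartile over a dose matrix) is given: first quartile when negative (synergy) and third quartile when positive (antagonism).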
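Wherever fitness (endpoint OD595 vs no drug) is given: OD595 on entry to stationary phase over no-drug wells; at most 1.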

O=C(O[C@@H]1Cc2c(O)cc(O)cc2O[C@@H]1c1cc(O)c(O)c(O)c1)c1cc(O)c(O)c(O)c1 [EGCG] + CCCCCCCCCC(=O)N[C@@H]1[C@H]([C@@H]([C@H](O[C@H]1OC2=C3C=C4C=C2OC5=C(C=C(C=C5)[C@H]([C@H]6C(=O)N[C@@H](C7=C(C(=CC(=C7)O)OC8[C@H]([C@H]([C@@H]([C@H](O8)CO)O)O)O)C9=C(C=CC(=C9)[C@H](C(=O)N6)NC(=O)[C@@H]4NC(=O)[C@@H]1C2=CC(=CC(=C2)OC2=C(C=CC(=C2)[C@H](C(=O)N[C@H](CC2=CC(=C(O3)C=C2)Cl)C(=O)N1)N)O)O)O)C(=O)O)O[C@H]1[C@@H]([C@H]([C@@H]([C@H](O1)CO)O)O)NC(=O)C)Cl)CO)O)O [Teicoplanin]
main component drawn
Settings	Bliss interaction score
[1]	0.0918
[2]	0.0672
[3]	0.125
[4]	-0.096

fitness, [5]
Settings	first compound 12.5 µg/mL	first compound 25 µg/mL	first compound 50 µg/mL
partner 0.1562 µg/mL	0.833	0.805	0.749
partner 0.3125 µg/mL	0.716	0.824	0.698
partner 0.625 µg/mL	0.819	0.806	0.823

fitness
Settings	first compound 12.5 µg/mL	first compound 25 µg/mL	first compound 50 µg/mL
[5], partner 0.62 µg/mL, one replicate	0.62	0.662	0.558
[5], partner 1.24 µg/mL, one replicate	0.646	0.604	0.565
[5], partner 2.48 µg/mL, one replicate	0.538	0.51	0.475
[6], partner 0.1562 µg/mL, main component drawn	0.846	0.833	0.892
[6], partner 0.3125 µg/mL, main component drawn	0.957	0.968	0.959
[6], partner 0.625 µg/mL, main component drawn	0.935	≥ 1	–

CCC[C@@H]1C[C@@H](C(=O)N[C@@H]([C@H]2O[C@H](SC)[C@H](O)[C@@H](O)[C@H]2O)[C@@H](C)O)N(C)C1 [Lincomycin] + Cc1ncc([N+](=O)[O-])n1CCO [Metronidazole]
Settings	Bliss interaction score
[1]	0.073
[2]	0.138
[3]	0.0836
[4]	-0.0532

Settings	fitness
[6], first compound 0.1 µg/mL, partner 0.625 µg/mL	0.884
[6], first compound 0.1 µg/mL, partner 1.25 µg/mL	0.953
[6], first compound 0.1 µg/mL, partner 2.5 µg/mL	≥ 1
[6], first compound 0.2 µg/mL, partner 0.625 µg/mL	0.812
[6], first compound 0.2 µg/mL, partner 1.25 µg/mL	0.853
[6], first compound 0.2 µg/mL, partner 2.5 µg/mL	0.866
[7], first compound 0.2 µg/mL, partner 1.073 µg/mL	0.752
[7], first compound 0.2 µg/mL, partner 2.145 µg/mL	0.681
[7], first compound 0.2 µg/mL, partner 4.29 µg/mL	0.659
[7], first compound 0.215 µg/mL, partner 1.25 µg/mL	0.874
[7], first compound 0.215 µg/mL, partner 2.5 µg/mL	0.87
[7], first compound 0.215 µg/mL, partner 5 µg/mL	0.844
[7], first compound 0.4 µg/mL, partner 1.073 µg/mL	0.68
[7], first compound 0.4 µg/mL, partner 2.145 µg/mL	0.654
[7], first compound 0.4 µg/mL, partner 4.29 µg/mL	0.647
[7], first compound 0.43 µg/mL, partner 1.25 µg/mL	0.765
[7], first compound 0.43 µg/mL, partner 2.5 µg/mL	0.761
[7], first compound 0.43 µg/mL, partner 5 µg/mL	0.738
[7], first compound 0.8 µg/mL, partner 1.073 µg/mL	0.502
[7], first compound 0.8 µg/mL, partner 2.145 µg/mL	0.435
[7], first compound 0.8 µg/mL, partner 4.29 µg/mL	0.428
[7], first compound 0.86 µg/mL, partner 1.25 µg/mL	0.579
[7], first compound 0.86 µg/mL, partner 2.5 µg/mL	0.578
[7], first compound 0.86 µg/mL, partner 5 µg/mL	0.557
[8], first compound 0.1 µg/mL, partner 0.625 µg/mL	0.971
[8], first compound 0.1 µg/mL, partner 1.25 µg/mL	0.93
[8], first compound 0.1 µg/mL, partner 2.5 µg/mL	0.887
[8], first compound 0.2 µg/mL, partner 0.625 µg/mL	0.928
[8], first compound 0.2 µg/mL, partner 1.25 µg/mL	0.9
[8], first compound 0.2 µg/mL, partner 2.5 µg/mL	0.876
[8], first compound 0.4 µg/mL, partner 0.625 µg/mL	0.991
[8], first compound 0.4 µg/mL, partner 1.25 µg/mL	0.894
[8], first compound 0.4 µg/mL, partner 2.5 µg/mL	0.933

CCC[C@@H]1C[C@@H](C(=O)N[C@@H]([C@H]2O[C@H](SC)[C@H](O)[C@@H](O)[C@H]2O)[C@@H](C)O)N(C)C1 [Lincomycin] + Cc1onc(-c2ccccc2)c1C(=O)N[C@@H]1C(=O)N2[C@@H]1SC(C)(C)[C@@H]2C(=O)O [Oxacillin]
Settings	Bliss interaction score
[1]	0.137
[2]	0.189
[3]	0.119
[4]	-0.0676

fitness
Settings	first compound 0.1 µg/mL	first compound 0.2 µg/mL	first compound 0.215 µg/mL	first compound 0.4 µg/mL	first compound 0.43 µg/mL	first compound 0.8 µg/mL	first compound 0.86 µg/mL
[6], partner 0.0156 µg/mL	0.785	0.78	–	0.291	–	–	–
[6], partner 0.0312 µg/mL	0.655	0.682	–	0.259	–	–	–
[6], partner 0.0625 µg/mL	0.491	0.515	–	0.173	–	–	–
[7], partner 0.01 µg/mL	–	0.765	0.927	0.63	0.762	–	0.507
[7], partner 0.02 µg/mL	–	0.764	0.882	0.588	0.778	–	0.483
[7], partner 0.04 µg/mL	–	0.509	0.787	0.403	0.716	0.139	0.404
[8], partner 0.002 µg/mL	0.911	0.939	–	0.913	–	–	–
[8], partner 0.004 µg/mL	0.881	0.923	–	0.926	–	–	–
[8], partner 0.008 µg/mL	0.891	0.877	–	0.83	–	–	–

fitness, [8], one replicate
Settings	partner 0.0078 µg/mL	partner 0.0155 µg/mL	partner 0.031 µg/mL	partner 0.075 µg/mL	partner 0.15 µg/mL	partner 0.3 µg/mL
first compound 0.1 µg/mL	≥ 1	≥ 1	≥ 1	–	–	–
first compound 0.2 µg/mL	≥ 1	≥ 1	0.889	–	–	–
first compound 0.4 µg/mL	≥ 1	≥ 1	0.934	0.183	0.0398	0.0489
first compound 0.8 µg/mL	–	–	–	0.403	0.0361	0.0601
first compound 1.6 µg/mL	–	–	–	0.261	0.0594	0.0563
